The values below come from patent US5563125A, “5'-deoxy-5'-(substituted)alkylthioribose compounds and their pharmaceutical compositions” (priority 1992, dated 1996).

Molecules are shown by their SMILES.

One may read the IC50 as the concentration needed to halve the response being measured. The term Ki denotes the dissociation constant of the complex between target and ligand, obtained from inhibition or displacement. Read a low Ki as higher affinity.

Experiment [1] has as its system T. b. brucei procyclic trypanosomes (Lab 110 EATRO strain). The experiment can be described thus: In vitro antitrypanosomal activity, procyclic trypanosomes in T2 medium. Type of experiment: cell-based, Trypanosoma brucei brucei. The settings on record: 3-5 days. The method, then: The antitrypanosomal effects of HETA and other nucleosides were examined in the Lab 110 EATRO strain of T. b. brucei in culture.
Cells were cultured as described in Bacchi et al. Exp. Parasitol. 68, 392, 1989. Cells were then grown in the presence of the compounds for 3-5 days. Drugs were filtered, sterilized and added aseptically. Control cells achieved a maximum density of 1.5-3.5×10^7 /ml. Hemocytometer counts were made daily and the results were expressed as a percent of control growth. IC50 plots were obtained by graphing log (drug) vs. percent growth inhibition.
Trypanocidal Activity of MTA and MTR Analogs
against T. b. brucei procyclic trypanosomes in T2 medium.

In experiment [2] the test system is L5178Y cells (MTA phosphorylase-containing). The experiment can be described thus: Growth inhibition of L5178Y cells. It is filed as cell-based, mouse. The settings on record: 48 h. On the procedure: (§1) L1210, L5178Y and MOLT-4 cell lines were grown in RPMI 1640 and 10% Nu Serum (Collaborative Research Inc., Lexington, Mass.) and CCRF-CEM cells were grown in 10% Horse Serum (Gibco Laboratories, Grand Island, N.Y.) and maintained as previously described for suspension cultures by Pera et al. in Cancer Res. 46, 1148, 1986. Cell cultures (0.3×10^5 cells/ml) were treated with each compound at 0.1 to 1000 μM to determine the concentration that inhibited growth by 50% (IC50) at 48 hr for the L1210 and L5178Y cells and at 96 hr for the CCRF-CEM and MOLT-4 cells. The incubation times allowed approximately 4 cell doublings in each cell line. All compounds were freshly prepared prior to treatment by dissolving in DMSO and diluting in serum-free media. Cells were counted by electron particle counting (Model XF' Coulter Counter; Coulter Electronics, Hialeah, Fla.).
(§2) For each compound, the concentrations required to inhibit cell growth by 50% (IC50 values) are shown in Table 7 for two murine leukemic cell lines, L1210 and L5178Y [MTA phosphorylase-deficient and MTA phosphorylase-containing, respectively] and two human leukemic cell lines, CCRF-CEM and MOLT-4 [MTA phosphorylase-deficient and MTA phosphorylase-containing, respectively]. ETA, MFETA, HETA and PTA had lower IC50 values in the L5178Y cells than in the L1210 cells. […] This differential is consistent with the possibility that, in L5178Y cells, MFETA is cleaved by MTA phosphorylase to the growth inhibitory metabolite, 5-monofluoroethylthioribose-1-phosphate (MFETR-1-P).

Experiment [3] relates to MOLT-4 cells (MTA phosphorylase-containing). Description: Growth inhibition of MOLT-4 cells. To be noted: MOLT-4, 96 h. It is filed as cell-based, human. The method, then:
as §1, §2

Experiment [4] deals with T1, Mouse Liver MTA Phosphorylase (Mus musculus, UniProt Q9CQ65).
T1 sequence (Q9CQ65 1-283): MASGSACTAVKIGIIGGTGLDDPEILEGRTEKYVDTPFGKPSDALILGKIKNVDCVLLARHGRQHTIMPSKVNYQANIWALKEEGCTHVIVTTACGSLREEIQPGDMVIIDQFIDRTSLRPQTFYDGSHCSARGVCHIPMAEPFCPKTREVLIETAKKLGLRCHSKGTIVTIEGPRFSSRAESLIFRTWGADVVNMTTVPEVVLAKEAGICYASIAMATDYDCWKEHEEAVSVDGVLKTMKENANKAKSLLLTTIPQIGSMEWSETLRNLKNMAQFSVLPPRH
The experiment can be described thus: Mouse liver MTA phosphorylase substrate/inhibitor assay. The settings on record: for Substrate (% Control): substrate activity relative to MTA. Type of experiment: biochemical. The method, then: ^a MTA phosphorylase activity was assayed as described in Sufrin et

The subject of experiment [5] is L1210 cells (MTA phosphorylase-deficient). The experiment can be described thus: Growth inhibition of L1210 cells. To be noted: L1210, 48 h. Type of experiment: cell-based, mouse. The method, then: as §1, §2
The test system of experiment [6] is CCRF-CEM cells (MTA phosphorylase-deficient). The experiment can be described thus: Growth inhibition of CCRF-CEM cells. Type of experiment: cell-based, human. To be noted: 96 h. On the procedure:
as §1, §2

Experiment [7] addresses T2, T. b. brucei MTA phosphorylase (Trypanosoma brucei, UniProt Q57XS4).
T2 construct: MTA or analogs as substrates
Description: T. b. brucei MTA phosphorylase substrate assay. It is filed as biochemical. The settings on record: relative to MTA. On the procedure:
^a MTA phosphorylase was assayed according to Ghoda et al., using 200
μM MTA (saturating) or analogs as substrates. Specific activities of
the dialyzed enzyme preparations were with 50 mM PO4, 104.97 n
moles/mg protein/h; without PO4, 28.27 n moles/mg protein/h. Results
are expressed as percent activity compared to as substrate with and
without PO4, respectively.

Experiment [8] deals with P. falciparum. The experiment can be described thus: In vitro antimalarial activity of HETA. It is filed as cell-based, Plasmodium falciparum. To be noted: P. falciparum in vitro screen.
For experiment [9], the system named is T. b. brucei LAB 110 EATRO. The experiment can be described thus: In vivo antitrypanosomal activity, LAB EATRO mouse infection model. The settings on record: 7 days, miniosmotic pump. On the procedure: ^a Animals were treated with surgically implanted miniosmotic pumps
loaded as per manufacturers instructions with MTA, HETA or MFETA suspende

T2 sequence (Q57XS4 entry or part of it): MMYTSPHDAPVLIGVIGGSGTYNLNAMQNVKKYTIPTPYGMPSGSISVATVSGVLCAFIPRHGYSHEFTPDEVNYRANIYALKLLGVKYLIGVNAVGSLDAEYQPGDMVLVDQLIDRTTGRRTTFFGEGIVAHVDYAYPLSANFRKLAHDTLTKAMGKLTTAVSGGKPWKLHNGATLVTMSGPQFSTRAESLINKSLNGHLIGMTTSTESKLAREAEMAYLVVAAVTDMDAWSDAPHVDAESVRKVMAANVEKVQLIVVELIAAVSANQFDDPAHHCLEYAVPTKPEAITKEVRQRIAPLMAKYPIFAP

Take `N=C(N)c1ccc(N=NNc2ccc(C(=N)N)cc2)cc1` [BERENIL]: inhibition in experiment [1] (Trypanosoma brucei) was half-maximal at 0.2 µM (IC50).
`Nc1ncnc2c1ncn2[C@@H]1O[C@H](CSCCBr)[C@@H](O)[C@H]1O` [BETA, 5'-deoxy-5'-(bromoethylthio)adenosine]: the IC50 in experiment [2] came to 150 µM; in experiment [3], 25 ± 10 µM; in [5], 150 µM; in [6], 250 ± 50 µM; in experiment [1], 0.5 µM. The affinity in experiment [4] corresponds to a Ki of 6.5 µM. Also, the “Substrate (% Control)” value in experiment [4] came to 38 % Control. The “Percent Control Activity” value in experiment [7] (+50 mM PO4, 200 μM substrate) is recorded as 88.8%; in experiment [7] (No PO4, 200 μM substrate), 120%.
As to `CCSC[C@H]1O[C@@H](n2cnc3c(N)ncnc32)[C@H](O)[C@@H]1O` [ETA, reference compound], the IC50 was 250 ± 100 µM in experiment [2] (Mus musculus); 20 ± 10 µM in experiment [3] (Homo sapiens); 800 ± 100 µM in [5] (Mus musculus); 200 ± 100 µM in [6] (Homo sapiens); 138 µM in experiment [1] (Trypanosoma brucei). Besides, in experiment [4], the “Substrate (% Control)” value is reported as 95 % Control. Also, the “growth of the microorganism inhibited in an in vitro screen” value in experiment [8] is “inhibited”. Besides, the “Percent Control Activity” value is 76.2% in [7] (+50 mM PO4, 200 μM substrate) and 100% in experiment [7] (No PO4, 200 μM substrate).
As for `Nc1ncnc2c1ncn2[C@@H]1O[C@H](CSCCCO)[C@@H](O)[C@H]1O` [HPTA], the midpoint of inhibition in experiment [1] (Trypanosoma brucei), the IC50, lay at 170 µM. Besides, the “Percent Control Activity” value was found to be 72.5% in [7] (+50 mM PO4, 200 μM substrate) and 101.8% in experiment [7] (No PO4, 200 μM substrate).
`Nc1ncnc2c1ncn2[C@@H]1O[C@H](CSCCCF)[C@@H](O)[C@H]1O` [MFPTA, reference compound]: the concentration for half-maximal inhibition (IC50) is 600 µM in [2] (Mus musculus); 25 µM in [3] (Homo sapiens); 600 µM in [5] (Mus musculus); 160 µM in experiment [6] (Homo sapiens); 120 µM in experiment [1] (Trypanosoma brucei). Also, the “Substrate (% Control)” value in experiment [4] is given as 66 % Control. Besides, the “Percent Control Activity” value in [7] (+50 mM PO4, 200 μM substrate) came out at 47.5%; in [7] (No PO4, 200 μM substrate), 116.4%.
With `CSC[C@H]1O[C@@H](n2cnc3c(N)ncnc32)[C@H](O)[C@@H]1O` [MTA, 5'-deoxy-5'-methylthioadenosine, reference compound], the concentration for half-maximal inhibition (IC50) was 200 ± 45 µM in [2] (Mus musculus), 11 ± 7 µM in experiment [3] (Homo sapiens), 850 ± 120 µM in [5] (Mus musculus) and 150 ± 60 µM in experiment [6] (Homo sapiens). Also, the “% Cured” value in [9] (25 mg/kg/day), in experiment [9] (50 mg/kg/day) and in experiment [9] (100 mg/kg/day) was 0% throughout. The “MSD (mean survival in days of animals dying of infection)” value in experiment [9] (25 mg/kg/day), in experiment [9] (50 mg/kg/day) and in [9] (100 mg/kg/day) was 5.0 days throughout. Also, the “Number Cured Total” value in experiment [9] (25 mg/kg/day), in [9] (50 mg/kg/day) and in experiment [9] (100 mg/kg/day) was 0/5 in each case. Besides, in experiment [4], the “Substrate (% Control)” value was determined as 100 % Control. For the same molecule, the “Percent Control Activity” value in [7] (+50 mM PO4, 200 μM substrate) is 100%; in experiment [7] (No PO4, 200 μM substrate) it was 100%.
In [1] (Trypanosoma brucei), `N=C(N)c1ccc(OCCCCCOc2ccc(C(=N)N)cc2)cc1` [PENTAMIDINE] gave an IC50 of 0.2 µM.
Take `CCCSC[C@H]1O[C@@H](n2cnc3c(N)ncnc32)[C@H](O)[C@@H]1O` [PTA, reference compound]: the 50% inhibitory concentration (IC50) in [2] (Mus musculus) amounted to 500 µM; in experiment [3] (Homo sapiens), 45 µM; in experiment [5] (Mus musculus), 1000 µM; in [6] (Homo sapiens), 160 µM; in experiment [1] (Trypanosoma brucei), 46 µM. Also, the “Substrate (% Control)” value in [4] is listed as 102 % Control. Further, the “Percent Control Activity” value in experiment [7] (+50 mM PO4, 200 μM substrate) was 57.5%; in experiment [7] (No PO4, 200 μM substrate), 96.4%.
